Holding throughout (assay): NCI anticancer screen, dose series, 48 h
Test [1] has as its system IGROV-1.
In test [2] the test system is K562.
For test [3], the system named is HOP-92.
Test [4] relates to MOLT-4.
Test [5] deals with RXF 393.
Test [6] has as its system CCRF-CEM.
The subject of test [7] is M14.
Test [8] deals with A498.
Test [9] relates to SK-MEL-2.
Test [10] deals with HT-29.
Test [11] relates to SNB-19.
Test [12] deals with KM12.
Test [13] deals with UACC-257.
The subject of test [14] is SK-MEL-28.
The subject of test [15] is HCT-15.
Test [16] concerns OVCAR-8.
Test [17] relates to COLO 205.
Test [18] relates to HOP-62.
For test [19], the system named is OVCAR-4.

Experimental findings from ChEMBL document CHEMBL1201862, “PubChem BioAssay data set” (2004) are described below.

Each structure is given as a SMILES string.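 Interpolation was linear, between the two tested concentrations surrounding the appropriate level; five concentrations were tested over 48 hours in 96-well plates. GI50: concentration for 50% inhibition of growth.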 The source made the active and inactive calls. Rule as the data show it: active = GI50 up to about 1.1 µM and inactive = higher.

In the case of `CCCCCCCCCCCCN(O)C(=O)c1ccccc1`, the GI50 in test [1] is 37.8 µM (inactive); in [2] it was 18.9 µM (inactive); in test [3], 17.7 µM (inactive); in [4], 6.44 µM (inactive); in test [5], 35.2 µM (inactive); in test [6] it was 3.82 µM (inactive). Moreover, the GI50 is 21.2 µM (inactive) in test [7]; 18.8 µM (inactive) in test [8]; 47 µM (inactive) in [9]; 39.4 µM (inactive) in [10]; 42.6 µM (inactive) in test [11]; 38 µM (inactive) in test [12]. The GI50 in [13] is 18.8 µM (inactive); in test [14], 36.8 µM (inactive); in test [15], 9.64 µM; in test [16], 18.9 µM (inactive).
On to `Cc1ccc(S(=O)(=O)N/N=C2\C=CC3(CC2)C(=O)N(I)c2ccccc23)cc1` (centres undefined), for which the GI50 in [2] is 25.1 µM (inactive); in test [3], 89.7 µM (inactive); in [4] it was 42.6 µM (inactive); in [5], 15.1 µM (inactive); in test [17] it was > 100 µM (inactive); in [18], > 100 µM (inactive). Further, the GI50 in [6] is 75 µM (inactive); in test [7], > 100 µM (inactive); in test [8], > 100 µM (inactive); in test [9] it was 48.1 µM (inactive); in test [19], > 100 µM (inactive); in [10], > 100 µM (inactive). Besides, the GI50 in test [11] is > 100 µM (inactive); in test [12], 82.2 µM (inactive); in test [13], > 100 µM (inactive); in [14] it was > 100 µM (inactive); in test [15], over 100 µM; in [16], > 100 µM (inactive).
Take `Clc1ccc(C2=NN(c3ccccc3)C3c4cc(Br)ccc4OCC23)cc1` (centres undefined): the GI50 in test [1] is > 100 µM (inactive); in [2] it was 33.8 µM (inactive); in test [3] it was > 100 µM (inactive); in test [4] it was 40.9 µM (inactive); in test [5] it was 61.1 µM (inactive); in test [17], > 100 µM (inactive). Besides, the GI50 in test [18] was > 100 µM (inactive); in test [6], 61.9 µM (inactive); in [8], > 100 µM (inactive); in test [9], > 100 µM (inactive); in [10], 66.7 µM (inactive); in [11], > 100 µM (inactive). For the same molecule, the GI50 in [12] is > 100 µM (inactive); in test [13], 99.1 µM (inactive); in [14], > 100 µM (inactive); in test [16], > 100 µM (inactive).
Consider `O=S1(=O)NN=C(NCc2ccc(Cl)c(Cl)c2)c2ccccc21`, for which the GI50 was > 100 µM (inactive) in test [1]; 12 µM (inactive) in test [2]; 50.1 µM (inactive) in [3]; 15.1 µM (inactive) in test [4]; 19.8 µM (inactive) in test [5]; > 100 µM (inactive) in [17]. Also, the GI50 in test [6] was 9.16 µM (inactive); in [7], > 100 µM (inactive); in test [8], > 100 µM (inactive); in [9], > 100 µM (inactive); in [19], > 100 µM (inactive); in [10], 53.8 µM (inactive). For the same molecule, the GI50 in test [11] is > 100 µM (inactive); in test [12], > 100 µM (inactive); in test [13], > 100 µM (inactive); in test [15] it was 36 µM; in test [16], > 100 µM (inactive).
Take `CC(C)(C)c1cc2ccc(C(N)=O)cc2c(=O)[nH]1`: the GI50 in test [1] was > 100 µM (inactive); in [2], > 100 µM (inactive); in test [3], 95.1 µM (inactive); in test [4], > 100 µM (inactive); in test [5], 44.9 µM (inactive); in test [17] it was > 100 µM (inactive). Besides, the GI50 in test [18], in test [6], in test [7], in [8], in test [9] and in test [19] was > 100 µM (inactive) in each case. Also, the GI50 in [10] was > 100 µM (inactive); in test [11] it was > 100 µM (inactive); in test [12] it was 59.3 µM (inactive); in test [13] it was > 100 µM (inactive); in [14] it was > 100 µM (inactive); in test [15], over 100 µM. Also, the GI50 in test [16] is > 100 µM (inactive).
In the case of `CC1=NN(c2ccccc2)C(=O)C1=C1SCCCS1`, the GI50 in test [1] was 30.2 µM (inactive); in test [2] it was 21.1 µM (inactive); in test [3], 25.5 µM (inactive); in [4], 16 µM (inactive); in test [5], 28.5 µM (inactive); in test [17] it was 15.9 µM (inactive). Also, the GI50 was 42.1 µM (inactive) in test [18]; 11.7 µM (inactive) in test [6]; 49.4 µM (inactive) in test [7]; 45.7 µM (inactive) in test [8]; 56 µM (inactive) in test [9]; 32 µM (inactive) in test [10]. For the same molecule, the GI50 is 22.5 µM (inactive) in [11]; 21.9 µM (inactive) in test [12]; 28.2 µM (inactive) in [13]; 48.6 µM (inactive) in test [14]; 31.9 µM in test [15]; 31.7 µM (inactive) in test [16].
On to `O=c1c2cccc3cccc(c4n1CCN=4)c32`, for which the GI50 in [1] is 82.6 µM (inactive); in test [2] it was > 100 µM (inactive); in [3] it was > 100 µM (inactive); in test [4], 30.3 µM (inactive); in [5], 42.4 µM (inactive); in [17], > 100 µM (inactive). Further, the GI50 in test [18] is 93.3 µM (inactive); in test [6], 80.2 µM (inactive); in [7], 73.1 µM (inactive); in [8] it was 40.3 µM (inactive); in test [9] it was 63.7 µM (inactive); in test [19] it was 40.8 µM (inactive). Besides, the GI50 was > 100 µM (inactive) in [10]; 76.9 µM (inactive) in [12]; > 100 µM (inactive) in [13]; > 100 µM (inactive) in [14]; 85.7 µM in test [15]; > 100 µM (inactive) in [16].
Turning to `CCCCCCC(=O)OC[n+]1ccc2c(C)c3[nH]c4ccc(OC)cc4c3c(C)c2c1`, the GI50 was 0.268 µM (active) in [1]; 0.0611 µM (active) in test [2]; 1.18 µM (inactive) in [3]; 0.0378 µM (active) in test [4]; 0.247 µM (active) in test [5]; 0.207 µM (active) in test [17]. The GI50 is 0.105 µM (active) in [18]; 0.0706 µM (active) in test [6]; 0.703 µM (active) in test [7]; 0.863 µM (active) in test [8]; 1.33 µM (inactive) in test [9]; 0.679 µM (active) in [19]. Also, the GI50 in test [10] is 0.0664 µM (active); in test [11], 0.308 µM (active); in test [12] it was 0.186 µM (active); in test [13] it was 1.01 µM (active); in test [14], 1.29 µM (inactive); in test [15] it was 0.117 µM. The GI50 in test [16] was 0.0752 µM (active).
`COC(=O)C(C(=O)C(=O)Nc1cccc(OC)c1)c1cnc2ccccc2n1` (centres undefined): the GI50 in test [1] was > 100 µM (inactive); in test [2], > 100 µM (inactive); in test [3] it was > 100 µM (inactive); in [4], > 100 µM (inactive); in [5], 46.1 µM (inactive); in [17], > 100 µM (inactive). Moreover, the GI50 in test [18], in test [6], in test [7], in [8], in test [9] and in test [19] was > 100 µM (inactive) in each case. Moreover, the GI50 is > 100 µM (inactive) in test [10]; > 100 µM (inactive) in [11]; > 100 µM (inactive) in [12]; > 100 µM (inactive) in test [13]; > 100 µM (inactive) in test [14]; over 100 µM in test [15]. In [16], the GI50 was > 100 µM (inactive).
For `CCC12CCCC(=O)N1C(CO)C(c1ccccc1)O2` (centres undefined), the GI50 in test [1], in [2], in [3], in test [5], in test [17] and in test [18] was > 100 µM (inactive) in each case. In addition, the GI50 in test [6], in test [8], in test [9], in test [19], in test [10] and in test [11] was > 100 µM (inactive) each time. The GI50 in [12] was > 100 µM (inactive); in [13], > 100 µM (inactive); in test [14], > 100 µM (inactive); in test [15] it was over 100 µM; in [16], > 100 µM (inactive).
Regarding `COc1ccc(CC2=NCCc3cc(OC)c(OC)cc32)cc1Br`, the GI50 is > 10 µM (inactive) in test [1]; 3.66 µM (inactive) in test [2]; 0.644 µM (active) in test [3]; 6.18 µM (inactive) in [4]; 21.1 µM (inactive) in [5]; 14.6 µM (inactive) in [17]. The GI50 in test [18] is 4.36 µM (inactive); in [6], 12.4 µM (inactive); in test [8], 13.1 µM (inactive); in test [9] it was 33.4 µM (inactive); in test [19] it was 15.2 µM (inactive); in [10], 3.18 µM (inactive). Besides, the GI50 in [11] is 12.7 µM (inactive); in test [12], 16.1 µM (inactive); in [13], 21.3 µM (inactive); in test [14], 19.8 µM (inactive); in test [16], 20.7 µM (inactive).
